The values below are quoted from earlier work in patent EP3728136B1 (Easymining Sweden AB, priority 2017, dated 2019).

This data set concerns biogas-producing bacteria. Conditions: concentration of free ammonia increased to 620 mg/l; Siles et al., 2010.

Turning to `N` [ammonia], the “gradual decrease of biogas production” value was 21%.
